Laboratory results: ChEMBL document CHEMBL4138210, “Synthesis and biological evaluation of some novel diastereoselective benzothiazole β-lactam conjugates” (Eur J Med Chem, 2018)
In brackets after ≈: the same amount, converted by molar mass.

How the values were obtained:
[1] = Cytotoxicity against human HepG2 cells assessed as cell viability after 72 hrs by MTT assay relative to control; assay type: cell-based; design: concentration or dose not given beside the values; conditions: read-out: Activity
[2] = Hemolytic activity against human RBC at 250 uM after 1 hr relative to control; assay type: ADME, cell-based, Erythrocyte; conditions: red blood cells (erythrocytes), read-out: Activity
Escherichia coli = assay: Antimicrobial activity against Escherichia coli ATCC […] after 24 to 48 hrs by broth serial dilution method; assay type: functional
Pseudomonas aeruginosa = assay: Antimicrobial activity against Pseudomonas aeruginosa PAO1 after 24 to 48 hrs by broth serial dilution method; assay type: functional
Plasmodium falciparum = assay: Antimalarial activity against Plasmodium falciparum K1; assay type: functional, organism-based
Staphylococcus aureus = assay: Antimicrobial activity against Staphylococcus aureus ATCC 25923 after 24 to 48 hrs by broth serial dilution method; assay type: functional
[3] = Plasmodium falciparum, K1, read-out: IC50

| SMILES | viability at 72 h [1] | hemolysis at 1 h, 250 µM [2] | MIC (Escherichia coli) | MIC (Pseudomonas aeruginosa) | IC50 (Plasmodium falciparum; [3]) | MIC (Staphylococcus aureus) | IC50 (Plasmodium falciparum) |
| --- | --- | --- | --- | --- | --- | --- | --- |
| CCOc1ccc(N2C(=O)[C@H](Oc3ccc(-c4nc5ccccc5s4)cc3)[C@@H]2c2ccc([N+](=O)[O-])cc2)cc1 | 74.8% | 2.29% | > 200 µg/mL | > 200 µg/mL | 11.8 µM | 215 µg/mL (≈ 400 µM) | – |
| CCOc1ccc(N2C(=O)[C@H](Oc3cccc(-c4nc5ccccc5s4)c3)[C@@H]2c2ccc([N+](=O)[O-])cc2)cc1 | 101% | 1.02% | > 200 µg/mL | > 200 µg/mL | 6 µM | 215 µg/mL (≈ 400 µM) | – |
| Cc1ccc(N2C(=O)[C@H](Oc3cccc(-c4nc5ccccc5s4)c3)[C@@H]2c2ccc(Cl)cc2)cc1 | – | 1.13% | > 200 µg/mL | > 200 µg/mL | 76.7 µM | 199 µg/mL (≈ 400 µM) | – |
| COc1ccc(N2C(=O)[C@H](Oc3cccc(-c4nc5ccccc5s4)c3)[C@@H]2c2ccc(Cl)cc2)cc1 | – | 2.8% | > 200 µg/mL | > 200 µg/mL | 20.4 µM | 205 µg/mL (≈ 400 µM) | – |
| COc1ccc(N2C(=O)[C@H](Oc3ccc(-c4nc5ccccc5s4)cc3)[C@@H]2c2ccc(OC)c(OC)c2)cc1 | 70.1% | 0.82% | > 200 µg/mL | > 200 µg/mL | 9.5 µM | 215 µg/mL (≈ 399 µM) | – |
| COc1ccc(N2C(=O)[C@H](Oc3cccc(-c4nc5ccccc5s4)c3)[C@@H]2c2ccc([N+](=O)[O-])cc2)cc1 | 99.5% | 1.56% | > 200 µg/mL | > 200 µg/mL | > 125 µM | 26 µg/mL (≈ 49.7 µM) | – |
| COc1cc(N2C(=O)[C@H](Oc3ccc(-c4nc5ccccc5s4)cc3)[C@@H]2c2ccc([N+](=O)[O-])cc2)cc(OC)c1OC | 62.4% | 1.09% | > 200 µg/mL | > 200 µg/mL | – | 29 µg/mL (≈ 49.7 µM) | Nd(Insoluble) |
| O=C1[C@H](Oc2ccc(-c3nc4ccccc4s3)cc2)[C@H](c2ccc3ccccc3c2)N1c1ccccc1 | 58% | 0.87% | > 200 µg/mL | > 200 µg/mL | 16.3 µM | 30 µg/mL (≈ 60.2 µM) | – |
| COc1ccc(N2C(=O)[C@H](Oc3ccc(-c4nc5ccccc5s4)cc3)[C@@H]2c2ccc(Cl)cc2)cc1 | – | 0.93% | > 200 µg/mL | > 200 µg/mL | 40.7 µM | 205 µg/mL (≈ 400 µM) | – |
| Cc1ccc(N2C(=O)[C@H](Oc3ccc(-c4nc5ccccc5s4)cc3)[C@@H]2c2ccc(Cl)cc2)cc1 | – | 1.16% | > 200 µg/mL | > 200 µg/mL | 31.1 µM | 199 µg/mL (≈ 400 µM) | – |
| CC(C)c1ccc([C@H]2[C@@H](Oc3ccc(-c4nc5ccccc5s4)cc3)C(=O)N2c2ccc(N(C)C)cc2)cc1 | – | 1.03% | > 200 µg/mL | > 200 µg/mL | > 125 µM | 107 µg/mL (≈ 200 µM) | – |
| COc1ccc(N2C(=O)[C@H](Oc3ccc(-c4nc5ccccc5s4)cc3)[C@@H]2c2ccc([N+](=O)[O-])cc2)cc1 | 71.4% | 1.11% | > 200 µg/mL | > 200 µg/mL | 10.4 µM | 26 µg/mL (≈ 49.7 µM) | – |
| O=C1[C@H](Oc2ccc(-c3nc4ccccc4s3)cc2)[C@H](/C=C/c2ccccc2)N1c1ccc(Cl)cc1 | – | 2.18% | > 200 µg/mL | > 200 µg/mL | 60.5 µM | 204 µg/mL (≈ 401 µM) | – |
| COc1ccc(N2C(=O)[C@H](Oc3ccc(-c4nc5ccccc5s4)cc3)[C@@H]2c2cccc([N+](=O)[O-])c2)cc1 | 62.8% | 1.02% | > 200 µg/mL | > 200 µg/mL | 17.7 µM | 26 µg/mL (≈ 49.7 µM) | – |
| COc1ccc(N2C(=O)[C@H](Oc3ccc(-c4nc5ccccc5s4)cc3)[C@@H]2c2c3ccccc3cc3ccccc23)cc1 | – | 0.89% | > 200 µg/mL | > 200 µg/mL | – | 231 µg/mL (≈ 399 µM) | Nd(Insoluble) |
| Cc1ccc(N2C(=O)[C@H](Oc3ccc(-c4nc5ccccc5s4)cc3)[C@@H]2c2ccc([N+](=O)[O-])cc2)cc1 | 80.7% | 1.25% | > 200 µg/mL | > 200 µg/mL | 11.4 µM | 25 µg/mL (≈ 49.3 µM) | – |
